Data from patent publication US20060241132A1, “Spiro derivatives and adhesion molecule inhibitors comprising the same as active ingredient” (Toray Industries, Inc. A Corporation of Japan, priority 2002, published 2006).

Legend:
[1] = molecular target: soluble VLA-4 (Homo sapiens, UniProt P05556+P13612); test: Inhibition of binding between CS-1 peptide and soluble VLA-4; conditions: absorbance at 490 nm, read-out: Inhibitory activity (IC50: nM)
Protocol: The inhibitory activity of the compound according to the present invention against the adhesion of VLA-4 may be determined by using an adhesion-measuring system in which the adhesion between VLA-4-expressing cells such as Ramos cells or Jurkat cells and fibronectin or fibronectin fragment such as a peptide containing CS-1 sequence (Gly Pro Glu He Leu Asp Val Pro Ser Thr) (hereinafter referred to as “CS-1 peptide”) immobilized on an immunoplate is measured. Alternatively, a binding-measuring system in which the adhesion between VLA-4 protein and fibronectin or fibronectin fragment such as CS-1 peptide immobilized on an immunoplate is measured may be used. In the present invention, it is preferred to evaluate the inhibitory activity of a compound using a binding-measuring system of soluble VLA-4 with CS-1 peptide (WO 98/32771), but the method is not restricted thereto. When testing the inhibitory effect of a compound, it is preferred to mix the soluble VLA-4 and the test compound beforehand.
Inhibitory Effect of Compounds Against Binding between CS-1 Peptide and Soluble VLA-4
The test compounds were evaluated in accordance with the method described in WO 98/32771. That is, in accordance with the teaching of a report (J. Bio. Chem., 262, 6886 (1987)), a conjugate between a peptide (Gys Leu His Gly Pro Glu Glu Ile Leu Asp Val Pro Ser Thr) containing CS-1 sequence and rabbit IgG (Sigma) was prepared. […]
Each compound and soluble VLA-4 (100 μl) were preliminarily reacted at room temperature for 20 minutes, and then the resulting mixture was allowed to react with the CS-1 peptide in each well at 30° C. for 3 hours. […] Then o-phenylenediamine as a substrate was added to color the reaction solution, and the absorbance at 490 nm was measured. From this absorbance, the binding inhibitory activity of each compound was determined.

[2] = system: DNFB-induced ear swelling in Balb/c mouse; test: Mouse allergic inflammation: DNFB-induced ear swelling after anti-DNP IgE sensitization; type: in vivo; conditions: male Balb/c mouse, anti-DNP IgE sensitized
Protocol: Inhibitory Effect of Compounds Against Mouse Allergic Inflammation
Using a seven-week old male Balb/c mouse (Charles River Japan, Inc.), sensitization was carried out by intravenously administering anti-DNP mouse IgE antibody. Twenty-four hours after sensitization, 0.38% DNFB (2,4-dinitrofluorobenzene) which was dissolved in a mixed solution of acetone:olive oil at 4:1 was applied to the right auricle of the mouse to induce inflammation. The thickness of both auricles was measured each hour after induction with a thickness gauge to calculate the ear swelling ratio (%) after induction versus pre-induction. The test compounds were dissolved in ethanol for applying to the auricle before induction.

Chain of soluble VLA-4 (P13612 35-977 limits assumed): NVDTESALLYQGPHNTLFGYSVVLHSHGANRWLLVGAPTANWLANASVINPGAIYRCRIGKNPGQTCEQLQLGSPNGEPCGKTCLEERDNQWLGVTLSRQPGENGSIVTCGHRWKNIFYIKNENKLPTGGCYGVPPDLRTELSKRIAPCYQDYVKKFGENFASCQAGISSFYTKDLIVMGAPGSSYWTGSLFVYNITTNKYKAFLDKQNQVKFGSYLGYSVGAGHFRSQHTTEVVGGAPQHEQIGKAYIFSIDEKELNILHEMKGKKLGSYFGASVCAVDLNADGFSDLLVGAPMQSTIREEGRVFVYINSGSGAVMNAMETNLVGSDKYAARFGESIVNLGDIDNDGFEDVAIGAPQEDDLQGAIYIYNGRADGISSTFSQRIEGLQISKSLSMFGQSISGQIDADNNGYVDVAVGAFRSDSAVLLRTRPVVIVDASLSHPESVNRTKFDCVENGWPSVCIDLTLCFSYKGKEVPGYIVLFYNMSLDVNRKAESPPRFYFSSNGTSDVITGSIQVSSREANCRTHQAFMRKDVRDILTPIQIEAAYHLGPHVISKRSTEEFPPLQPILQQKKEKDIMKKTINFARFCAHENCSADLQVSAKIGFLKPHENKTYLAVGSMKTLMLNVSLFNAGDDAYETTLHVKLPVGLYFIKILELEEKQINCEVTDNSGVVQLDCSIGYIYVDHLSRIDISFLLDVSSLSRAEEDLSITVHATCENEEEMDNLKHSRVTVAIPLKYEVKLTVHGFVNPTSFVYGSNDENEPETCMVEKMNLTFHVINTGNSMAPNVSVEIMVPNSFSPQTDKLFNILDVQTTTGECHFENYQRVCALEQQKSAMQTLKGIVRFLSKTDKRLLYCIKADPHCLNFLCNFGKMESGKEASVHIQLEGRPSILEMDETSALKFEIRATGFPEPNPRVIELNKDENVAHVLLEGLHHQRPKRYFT
Chain of soluble VLA-4 (P05556 21-728 limits assumed): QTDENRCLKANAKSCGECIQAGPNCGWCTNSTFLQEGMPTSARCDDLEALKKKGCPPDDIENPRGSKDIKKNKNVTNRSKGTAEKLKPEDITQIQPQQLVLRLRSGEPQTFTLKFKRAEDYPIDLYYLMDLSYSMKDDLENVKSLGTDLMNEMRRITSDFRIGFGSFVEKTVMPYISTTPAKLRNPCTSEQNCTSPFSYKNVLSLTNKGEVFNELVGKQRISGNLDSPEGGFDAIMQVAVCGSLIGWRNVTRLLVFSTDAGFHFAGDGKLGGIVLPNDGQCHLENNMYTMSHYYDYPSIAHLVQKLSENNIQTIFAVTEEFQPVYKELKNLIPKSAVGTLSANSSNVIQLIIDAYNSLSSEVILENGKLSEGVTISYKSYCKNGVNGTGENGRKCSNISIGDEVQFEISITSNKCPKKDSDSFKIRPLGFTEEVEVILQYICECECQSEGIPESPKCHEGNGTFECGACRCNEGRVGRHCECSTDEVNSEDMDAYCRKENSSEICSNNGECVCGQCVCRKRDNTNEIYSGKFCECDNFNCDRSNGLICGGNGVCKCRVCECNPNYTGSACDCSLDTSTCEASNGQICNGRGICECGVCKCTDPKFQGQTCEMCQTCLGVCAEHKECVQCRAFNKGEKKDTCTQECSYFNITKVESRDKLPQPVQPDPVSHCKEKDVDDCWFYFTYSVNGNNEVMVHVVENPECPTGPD

| IC50 [1] | Compound | ED 50 value, suppression of the increase in the ratio of ear swelling ([2]; 0.38% DNFB on right auricle, compound in ethanol applied to the auricle before induction) | suppression of the increase in the ratio of ear swelling from DNFB induction ([2]; DNFB-induced, compound applied to the auricle before induction) |
| --- | --- | --- | --- |
| 65 nM | CC(=O)N1CCCCC1C(=O)NC(CNC(=O)N1CCC2(CC1)C(=O)NCN2c1ccccc1)C(=O)O (centres unmarked) [Compound 18, 2-((1-Acetyl(2-piperidyl))carbonylamino)-3-((2,4,8-triaza-1-oxo-4-phenylspiro[4.5]dec-8-yl)carbonylamino)propanoic acid] |  |  |
| 110 nM | Cc1cccc(Cl)c1S(=O)(=O)NC(CNC(=O)N1CCC2(CC1)C(=O)N(C)CN2c1ccccc1)C(=O)O (centres unmarked) [Compound 8, 2-(((2-Chloro-6-methylphenyl)sulfonyl)amino)-3-((2,4,8-triaza-2-methyl-1-oxo-4-phenylspiro[4.5]dec-8-yl)carbonylamino)propanoic acid] |  |  |
| 110 nM | CC(=O)N1CCC[C@H]1C(=O)NC(CNC(=O)N1CCC2(CC1)C(=O)NCN2c1ccccc1)C(=O)O (stereo partly drawn) [Compound 16, 2-(((2S)-1-Acetylpyrrolidine-2-yl)carbonylamino)-3-((2,4,8-triaza-1-oxo-4-phenylspiro[4.5]dec-8-yl)carbonylamino)propanoic acid] | 0.8 mg/kg | suppressed the increase in the ratio of ear swelling in a dose-dependent manner |
